Laboratory results from patent publication US20210040089A1, “KRAS MUTANT PROTEIN INHIBITORS” (Jacobio Pharmaceuticals Co., Ltd., priority 2019, published 2021).

Legend:
[1] = molecular target: T1, KRAS G12C (Homo sapiens, UniProt P01116, G12C); test: SOS1 catalyzed nucleotide exchange assay (TR-FRET); type: biochemical; conditions: GDP-loaded HIS-KRAS(G12C), 1 hour pre-incubation with compound
T1 construct: HIS-KRAS (G12C, aa 2-185, Sino biological); purchased Sino biological
Method: 1. SOS1 Catalyzed Nucleotide Exchange Assay
HIS-KRAS (G12C, aa 2-185, Sino biological) was diluted to […] EDTA buffer (20 mM HEPES, pH 7.4, 50 mM NaCl, 10 mM EDA, 0.01% (v/v) Tween-20) and incubated for 30 min at 25° C. The EDTA pretreated HIS-KRAS(G12C) was diluted to 12 nM in assay buffer (25 mM HEPES, pH 7.4, 120 mM NaCl, 5 mM MgCl2, 1 mM DTI, 0.01% (v/v) Tween 20, 0.1% (w/v) BSA) containing 120 nM GDP(Sigma) and Mab Anti 6HIS-Tb cryptate Gold(Cisbio) and incubated for 1 hour at 25° C. to prepare GDP-loaded HIS-KRAS(G12C). The GDP-loaded HIS-KRAS(G12C) was pre-incubation with diluted compounds in a 384-well plate (Greiner) for 1 hour, then purified SOS 1ExD (Flag tag, aa 564-1049) and BODIPY™FL GTP (Invitrogen) were added to the assay wells (Final concentration: 3 nM HIS-KRAS(G12C), 2 μM SOS1 ExD, 80 nM BODIPY™FL GTP, 21 ng/mL MAb Anti 6HS-Tb cryptate Gold) and incubated for 4 hours at 25° C. TR-FRET signals were then read on Tecan Spark multimode microplate reader. The parameters were F486: Excitation 340 (35) nm, Emission 486 (10) nm, Lag time 100 μs, Integration time […]; F515: Excitation 340 (35) nm, Emission 515 (10) nm, Lag time […], Integration time 200 s. TR-FRET ratios for each individual wells were calculated by equation: TR-FRET ratio=(Signal F515/Signal F486)*10000. Then the data were analyzed using a 4-parameter logistic model to calculate IC50 values.

[2] = test system: Phospho-ERK1/2(THR202/TYR204) in NCI-H358 cells express KRAS G12C; test: Phospho-ERK1/2(THR202/TYR204) HTRF assay; type: cell-based; conditions: Homo sapiens; NCI-H358, 2 hours incubation; read-out: p-ERK inhibition in NCI-H358 IC50
Method: NCI-H358 cells express KRAS G12C were cultured in RPMI 1640 medium (Gibco) containing 10% fetal bovine serum (Gibco). Cells in culture medium were plated in 96-well plates at a concentration of 40,000 cells/well and allowed to attach overnight. The next day, culture medium was removed and added compounds diluted in assay medium (RPMI 1640, 0.1% EFBS). After 2 hours incubation in a 37° C./5% CO2 cell incubator, the assay medium was removed, then 50 μL of 1× supplemented lysis buffer (Cisbio) was added and the plates were incubated at 25° C. for 45 min with shaking. 10 μL of cell lysates from the 96-well plates were transferred to a 384-well plate (Greiner) containing 2.5 µL/well HTRF® pre-mixed antibodies (Cisbio 64AERPEH).
Incubate 4 hours at 25° C. and then read HTRF signals on Tecan Spark multimode microplate reader. The data were analyzed using a 4-parameter logistic model to calculate IC50 values.

[3] = test system: NCI-H358 cells express KRAS G12C; test: Cell growth inhibition assay (CCK-8); type: cell-based; conditions: Homo sapiens, 144 h; NCI-H358, 6 days incubation
Method: 3. Cell Growth inhibition assay
NCI-H358 cells express KRAS G12C were cultured in RPMI 1640 medium (Gibco) containing 10% fetal bovine serum (Gibco). Cells in culture medium were plated in 96-well plates at a concentration of 3000 cells/well ([…]) and allowed to attach overnight. The next day, compounds were diluted in culture medium and added to the plates. After 6 days incubation in a 37° C./5% CO2 cell incubator, the medium was removed, then 100 μL of 1×CCK-8 (MCE) in culture medium was added in each well. The plates were incubated 1.5-2 hours in a 37° C./5% CO2 cell incubator. OD450 signals were read on Tecan Spark multimode microplate reader and analyzed using a 4-parameter logistic model to calculate IC50 values.

T1 sequence (P01116 2-185 isoform P01116-2 G12C): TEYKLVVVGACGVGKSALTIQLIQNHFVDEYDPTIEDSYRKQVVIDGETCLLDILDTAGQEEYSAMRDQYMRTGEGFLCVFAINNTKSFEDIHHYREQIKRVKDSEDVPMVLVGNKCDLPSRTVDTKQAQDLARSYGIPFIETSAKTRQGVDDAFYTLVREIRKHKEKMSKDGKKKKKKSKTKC

`C=CC(=O)N1CCN(c2nc(OCC3CCC(N(C)C)C3)nc3c2CCN(c2cccc4cccc(C)c24)C3)CC1CC#N` (stereo not drawn) [Compound 24, 2-(1-acryloyl-4-(2-((3-(dimethylamino)cyclopentyl)methoxy)-7-(8-methylnaphthalen-1-yl)-5,6,7,8-tetrahydropyrido[3,4-d]pyrimidin-4-yl)piperazin-2-yl)acetonitrile] was tested, and the IC50 [1] was 20.1 nM, the IC50 [2] was 237 nM and the IC50 [3] was 93.6 nM.
`C=CC(=O)N1CCN(c2nc(OCC3CCCC3N(C)C)nc3c2CCN(c2cccc(Cl)c2Cl)C3)CC1CC#N` (stereo not drawn) [Compound 25, 2-(1-acryloyl-4-(7-(2,3-dichlorophenyl)-2-((2-(dimethylamino)cyclopentyl)methoxy)-5,6,7,8-tetrahydropyrido[3,4-d]pyrimidin-4-yl)piperazin-2-yl)acetonitrile] showed an IC50 [1] of 30.2 nM, an IC50 [2] of 267 nM and an IC50 [3] of 164 nM.
With `C=CC(=O)N1CCN(c2nc(OCC3CCCC3N(C)C)nc3c2CCN(c2cccc(F)c2C(F)(F)F)C3)CC1CC#N` (stereo not drawn) [Compound 26, 2-(1-acryloyl-4-(2-((2-(dimethylamino)cyclopentyl)methoxy)-7-(3-fluoro-2-(trifluoromethyl)phenyl)-5,6,7,8-tetrahydropyrido[3,4-d]pyrimidin-4-yl)piperazin-2-yl)acetonitrile] the IC50 [1] was 33.7 nM, the IC50 [2] was 231 nM and the IC50 [3] was 154 nM.
Work on `C=CC(=O)N1CCN(c2nc(OCC3CCCC3N(C)C)nc3c2CCN(c2ccccc2C(F)(F)F)C3)CC1CC#N` (stereo not drawn) [Compound 27, 2-(1-acryloyl-4-(2-((2-(dimethylamino)cyclopentyl)methoxy)-7-(2-(trifluoromethyl)phenyl)-5,6,7,8-tetrahydropyrido[3,4-d]pyrimidin-4-yl)piperazin-2-yl)acetonitrile] yielded an IC50 [1] of 84.6 nM, an IC50 [2] of 566 nM and an IC50 [3] of 310 nM.
`C=CC(=O)N1CCN(c2nc(OCC3(CN4CCCC4)CC3)nc3c2CCN(c2cccc(F)c2C(F)(F)F)C3)CC1CC#N` (stereo not drawn) [Compound 34, 2-(1-acryloyl-4-(7-(3-fluoro-2-(trifluoromethyl)phenyl)-2-((1-(pyrrolidin-1-ylmethyl)cyclopropyl)methoxy)-5,6,7,8-tetrahydropyrido[3,4-d]pyrimidin-4-yl)piperazin-2-yl)acetonitrile] showed an IC50 [1] of 15.9 nM, an IC50 [2] of 54.5 nM and an IC50 [3] of 78.6 nM.
With `C=CC(=O)N1CCN(c2nc(OCC3(CN4CCCC4)CC3)nc3c2CCN(c2cccc(Cl)c2Cl)C3)CC1CC#N` (stereo not drawn) [Compound 35, 2-(1-acryloyl-4-(7-(2,3-dichlorophenyl)-2-((1-(pyrrolidin-1-ylmethyl)cyclopropyl)methoxy)-5,6,7,8-tetrahydropyrido[3,4-d]pyrimidin-4-yl)piperazin-2-yl)acetonitrile] the IC50 [1] was 17.9 nM, the IC50 [2] was 85.3 nM and the IC50 [3] was 106 nM.
`C=CC(=O)N1CCN(c2nc(OCC3(CN(C)C)CC3)nc3c2CCN(c2cccc4ccccc24)C3)CC1CC#N` (stereo not drawn) [Compound 37, 2-(1-acryloyl-4-(2-((1-((dimethylamino)methyl)cyclopropyl)methoxy)-7-(naphthalen-1-yl)-5,6,7,8-tetrahydropyrido[3,4-d]pyrimidin-4-yl)piperazin-2-yl)acetonitrile] gave an IC50 [1] of 6.75 nM, an IC50 [2] of 81.6 nM and an IC50 [3] of 85.5 nM.
For `C=CC(=O)N1CCN(c2nc(OCC3(CN4CCCC4)CC3)nc3c2CCN(c2cccc(Cl)c2C(F)(F)F)C3)CC1CC#N` (stereo not drawn) [Compound 38, 2-(1-acryloyl-4-(7-(3-chloro-2-(trifluoromethyl)phenyl)-2-((1-(pyrrolidin-1-ylmethyl)cyclopropyl)methoxy)-5,6,7,8-tetrahydropyrido[3,4-d]pyrimidin-4-yl)piperazin-2-yl)acetonitrile], the IC50 [1] was 5.24 nM, the IC50 [2] was 66 nM and the IC50 [3] was 60.2 nM.
`C=CC(=O)N1CCN(c2nc(OCC3(CN4CCC4)CC3)nc3c2CCN(c2cccc(Cl)c2C(F)(F)F)C3)CC1CC#N` (stereo not drawn) [Compound 39, 2-(1-acryloyl-4-(2-((1-(azetidin-1-ylmethyl)cyclopropyl)methoxy)-7-(3-chloro-2-(trifluoromethyl)phenyl)-5,6,7,8-tetrahydropyrido[3,4-d]pyrimidin-4-yl)piperazin-2-yl)acetonitrile] gave an IC50 [1] of 7.28 nM, an IC50 [2] of 79.6 nM and an IC50 [3] of 104 nM.
For `C=CC(=O)N1CCN(c2nc(OCC3(CN4CCC4)CC3)nc3c2CCN(c2cccc4ccccc24)C3)CC1CC#N` (stereo not drawn) [Compound 41, 2-(1-acryloyl-4-(2-((1-(azetidin-1-ylmethyl)cyclopropyl)methoxy)-7-(naphthalen-1-yl)-5,6,7,8-tetrahydropyrido[3,4-d]pyrimidin-4-yl)piperazin-2-yl)acetonitrile], the IC50 [1] was 13.5 nM, the IC50 [2] was 149 nM and the IC50 [3] was 179 nM.
In the case of `C=CC(=O)N1CCN(c2nc(OCC3(CN4CCC4)CC3)nc3c2CCN(c2cccc4cccc(Cl)c24)C3)CC1CC#N` (stereo not drawn) [Compound 42, 2-(1-acryloyl-4-(2-((1-(azetidin-1-ylmethyl)cyclopropyl)methoxy)-7-(8-chloronaphthalen-1-yl)-5,6,7,8-tetrahydropyrido[3,4-d]pyrimidin-4-yl)piperazin-2-yl)acetonitrile], the IC50 [1] is reported as 5.24 nM, the IC50 [2] is reported as 63.6 nM and the IC50 [3] is reported as 118 nM.
`C=CC(=O)N1CCN(c2nc(OCC3(CN4CCC4)CC3)nc3c2CCN(c2cccc4cccc(C)c24)C3)CC1CC#N` (stereo not drawn) [Compound 43, 2-(1-acryloyl-4-(2-((1-(azetidin-1-ylmethyl)cyclopropyl)methoxy)-7-(8-methylnaphthalen-1-yl)-5,6,7,8-tetrahydropyrido[3,4-d]pyrimidin-4-yl)piperazin-2-yl)acetonitrile] showed an IC50 [1] of 5.04 nM, an IC50 [2] of 71.8 nM and an IC50 [3] of 135 nM.
`C=CC(=O)N1CCN(c2nc(OCC3(CN4CCCC4)CCC3)nc3c2CCN(c2cccc4ccccc24)C3)CC1CC#N` (stereo not drawn) [Compound 44, 2-(1-acryloyl-4-(7-(naphthalen-1-yl)-2-((1-(pyrrolidin-1-ylmethyl)cyclobutyl)methoxy)-5,6,7,8-tetrahydropyrido[3,4-d]pyrimidin-4-yl)piperazin-2-yl)acetonitrile] was tested, and the IC50 [1] was 33.2 nM, the IC50 [2] was 220 nM and the IC50 [3] was 742 nM.
For `C=CC(=O)N1CCN(c2nc(OCC3(CN4CCCC4)CCC3)nc3c2CCN(c2cccc4cccc(C)c24)C3)CC1CC#N` (stereo not drawn) [Compound 45, 2-(1-acryloyl-4-(7-(8-methylnaphthalen-1-yl)-2-((1-(pyrrolidin-1-ylmethyl)cyclobutyl)methoxy)-5,6,7,8-tetrahydropyrido[3,4-d]pyrimidin-4-yl)piperazin-2-yl)acetonitrile], the IC50 [1] was 13.3 nM, the IC50 [2] was 216 nM and the IC50 [3] was 590 nM.
For `C=CC(=O)N1CCN(c2nc(OCC3(CN(C)C)CC3)nc3c2CCN(c2cccc4cccc(Cl)c24)C3)CC1CC#N` (stereo not drawn) [Compound 46, 2-(1-acryloyl-4-(7-(8-chloronaphthalen-1-yl)-2-((1-((dimethylamino)methyl)cyclopropyl)methoxy)-5,6,7,8-tetrahydropyrido[3,4-d]pyrimidin-4-yl)piperazin-2-yl)acetonitrile], the IC50 [1] was 2.57 nM, the IC50 [2] was 14.7 nM and the IC50 [3] was 26.9 nM.
Work on `C=CC(=O)N1CCN(c2nc(OCC3(CN(C)C)CC3)nc3c2CCN(c2cccc4cccc(C)c24)C3)CC1CC#N` (stereo not drawn) [Compound 47, 2-(1-acryloyl-4-(2-((1-((dimethylamino)methyl)cyclopropyl)methoxy)-7-(8-methylnaphthalen-1-yl)-5,6,7,8-tetrahydropyrido[3,4-d]pyrimidin-4-yl)piperazin-2-yl)acetonitrile] yielded an IC50 [1] of 1.16 nM, an IC50 [2] of 23.7 nM and an IC50 [3] of 26.4 nM.
